Entries after “also recorded” stand apart in the source; their conditions may differ. Like-named read-outs stand apart in the source and are kept apart here.
How the values were obtained:
[1] = test system: gnawing (stereotyped behavior induced by apomorphine); test: Anti-apomorphine Test in Rats; assay type: in vivo, rats of Wistar strain (male); details: for ED50: read-out: ED50 and Its Confidence Limit; for Potency Ratio: anti-apomorphine ED50, relative to haloperidol = 1.0
Protocol: Six male rats of Wistar strain weighing 120 to 200 g were used at each dosage level. […] The effect against apomorphine was taken as positive when gnawing behavior was not noticed during the observation period of 1 minute. ED50 was calculated from the dose inhibition percet relationship.

[2] = test system: conditioned avoidance (avoidance failure); test: Conditioned Avoidance Test by Shuttle Box; assay type: in vivo, rats of Wistar strain (male); details: for ED50: read-out: ED50 and Its Confidence Limit; for Potency Ratio: conditioned avoidance ED50, relative to haloperidol = 1.0
Excerpt: Use was made of a shuttle box consisted of two chambers divided by a plate with a square hole. The floor of each chamber was made of steel-rod grid which can be charged electrically. The whole apparatus was maintained in a sound proof room. The training schedule was as follows. Each trial was initiated by supplying the sound of buzzer as conditioned stimulus for 3 seconds. Unless the rats escaped to another compartment […] thereafter, the grid floor was electrified for 4 seconds as unconditioned stimulus. Each rat was trained for more than 2 weeks with a daily session of 30 trials at an interval of 60 seconds.
Six rats per group were subjected to 10 consecutive trails 1, 2, 4, 6, 8 and 10 hours after medication, respectively. In this case, a 3-second interval was taken between the termination of the conditioned stimulus and the onset of the unconditioned one. ED50 values at each time were calculated from the average percentages of avoidance failure.

Catalepsy Test in Rats = details: rat, in vivo, po
Protocol: (§1) After medication, both legs of the rats were put on a horizontal metal bar, 12 cm apart from the floor, and the rats were forced to stand on hind legs. Observation of rat behavior was made 1, 2, 4, 6, 8, 10, 12 and 24 hours later.

catalepsy [3] = test: Catalepsy Test in Rats; details: for Potency Ratio: catalepsy ED50, relative to haloperidol = 1.0; for dissociation between the dose effective against methamphetamine and the dose inducing catalepsy / catalepsy: rat, oral, in words; for dissociation between the dose effective against methamphetamine and the dose inducing catalepsy: comparison of anti-methamphetamine and catalepsy tests
Protocol: as §1

[4] = test system: stereotyped behavior induced with methamphetamine hydrochloride; test: Anti-methamphetamine Test in Rats; details: for ED50: Rattus norvegicus, po, read-out: ED50 and Its Confidence Limit; for Potency Ratio: anti-methamphetamine ED50, relative to haloperidol = 1.0; for suppressing methamphetamine-induced stereotypy: rat, oral, in words
catalepsy [5] = details: rat, in vivo
Protocol: as §1

in vivo = details: rat, po
Protocol: as §1

[6] = rat, oral, apomorphine 1.25 mg/kg i.v., time of maximum effect 2 hrs

SMILES	ED50 ([1]; Rattus norvegicus, po, 1 h) [mg/kg]	Potency Ratio [1]	ED50 ([2]; Rattus norvegicus, po, 4 h) [mg/kg]	Potency Ratio [2]	ED50 at 8 h (Catalepsy Test in Rats) [mg/kg]	Potency Ratio (catalepsy [3])	dissociation between the dose effective against methamphetamine and the dose inducing catalepsy (catalepsy [3])	ED50 ([4]; 2 h) [mg/kg]	Potency Ratio [4]	ED50 [1, 6] [mg/kg]	ED50 ([2]; shuttle box, rat, oral, time of maximum effect 6 hrs) [mg/kg]	ED50 at 10 h (Catalepsy Test in Rats) [mg/kg]	catalepsy (catalepsy [3])	suppressing methamphetamine-induced stereotypy [4]	ED50 ([2]; shuttle box, rat, oral, time of maximum effect 4 hrs) [mg/kg]	ED50 ([4]; 1 h) [mg/kg]	ED50 ([1]; Rattus norvegicus, po, 2 h) [mg/kg]	Potency Ratio (catalepsy [5])	ED50 at 8 h (in vivo) [mg/kg]
O=C(CCCN1CCC(n2c(O)nc3ccccc32)CC1)c1ccc(F)cc1 [Benperidol, reference compound]	0.62	1.1	0.81	0.7	0.92	0.95	exhibit both the effects at almost the same dose level; also recorded: exhibit simultaneously both desired and undesired side-effects to almost the same extent at their effective dosages	0.44	1.1	–	–	–	–	–	–	–	–	–	–
O=C(CCCN1CCC(n2c(S)nc3ccccc32)CC1)c1ccc(F)cc1 [Compound A, 1-[1-(3-(4-fluorobenzoyl)propyl)-4-piperidyl]-2-mercaptobenzimidazole]	–	7.5	–	8.8	–	3.5	marked dissociation	0.054	8.9	0.095	0.06	0.25	produce catalepsy only in higher doses	highly effective in suppressing methamphetamine-induced stereotypy	–	–	–	–	–
CSc1nc2ccccc2n1C1CCN(CCCC(=O)c2ccc(F)cc2)CC1 [Compound B, 1-[1-(3-(4-fluorobenzoyl)propyl)-4-piperidyl]-2-methylmercaptobenzimidazole]	–	1.7	–	1.6	–	1.3	marked dissociation	–	2.8	0.41	–	0.68	produce catalepsy only in higher doses	highly effective in suppressing methamphetamine-induced stereotypy	0.34	0.17	–	–	–
O=C(CCCN1CCC(O)(c2ccc(Cl)cc2)CC1)c1ccc(F)cc1 [Haloperidol, reference compound]	–	–	0.53	–	–	–	exhibit both the effects at almost the same dose level; also recorded: exhibit simultaneously both desired and undesired side-effects to almost the same extent at their effective dosages	–	–	–	–	–	–	–	–	0.48	0.71	1.0	0.88

From patent US3963727A, “1,2 Disubstituted benzimidazole derivatives” (Daiichi Seiyaku Co., Ltd., priority 1975, dated 1976)
